Tested on: Cocaine-targeting aptamer (DNA, aptamer) AGACAAGGAAAATCCTTCAATGAAGTGGGTCG
Assay: square wave voltammetry, aptamer on gold microelectrode
Conditions: PBS; MCH-passivated; non-coated and PSB-coated sensors same calibration, modified Langmuir fit, constant not given

In the case of `COC(=O)[C@H]1[C@@H](OC(=O)c2ccccc2)C[C@@H]2CC[C@H]1N2C`, the binding is reported as “yes”.

From article PMC9967584 (2023)
